Measurements from patent publication US10487086.

Settings: from C=CCCC(=O)Nc1cc(NC(=O)OC)ccc1-c1nnc(Cl)cc1C(CC=C)NC(=O)OC(C)(C)C; rcm bond; 12-membered ring; Grubbs II (0.3 eq); DCM; 6.6 mM; 40.0 °C; 1.0 h

`COC(=O)Nc1ccc2c(c1)NC(=O)CCC=CCC(NC(=O)OC(C)(C)C)c1cc(Cl)nnc1-2` (stereo not shown) gave a ring closure, isolated yield of 56%.
